From patent publication US20260265179A1, “PHOTOSWITCHABLE COMPOUNDS AND AFFINITY LIGANDS, AND THEIR USE FOR THE OPTICAL CONTROL OF AFFINITY MATRICES” (AFC Innovations GmbH, priority 2023, published 2026) come the findings set out here.

A value given as a limit tells only on which side of the number the result lay.

Data set [1] can be described thus: Thermal cis to trans relaxation of PS4, HPLC. The format is physicochemical. The note with it: 25° C., kept in the dark after yellow light (593 nm) for 2 min.
A short description of data set [2]: Stability of photoswitch in presence of TCEP during derivatization reaction. The format is physicochemical. The note with it: 1 mM TCEP, pH 8.5, 35° C., 16 h. Here is the method:
Freshly degassed and reduced SpA #2 (650 μM, 1.3 μmol, 10 mg, 1 eq) in a total volume of 2 ml was diluted with the same degassed buffer (100 mM sodium borate, 150 mM NaCl, 1 mM TCEP, pH 8.5) to a final protein concentration of 50 μM. This solution was stirred under nitrogen atmosphere while 2.2 mg PS2 (2.6 μmol, 2 eq) dissolved in 0.26 ml DMF, which has been illuminated with red light (635 nm) for 5 min, was added in one portion. The reaction was illuminated with red light and stirred for 16 h at 35° C. […] The derivatization reaction results in a […] amount of intramolecular cross-linked species. Further purification steps by anion exchange chromatography and SEC were performed to remove small amounts of cross-linked species and higher oligomers.

The test system of data set [3] is immunoglobulin G (IgG) mixture (Cutaquig). The experiment in a line: Light-controlled affinity purification of IgG from polyclonal antibody mixture Cutaquig. The format is binding. The note with it: sample application and washing under red light, elution under blue light; immobilized on NHS-Agarose. Here is the method: For the functional assessment of the light-switchable affinity matrices, these were encased within a transparent acrylic glass housing, featuring a thickness of 2 mm, to achieve a settled bed volume (SBV) of 250 μl. A LED array equipped with lenses capable of alternating between peak wavelengths of 635 nm (red) and 465 nm (blue) was positioned adjacent to the housing. This configuration ensured thorough and efficient illumination of the entire resin material contained within. The performance of the light-switchable affinity matrix was tested using the polyclonal antibody mixture Cutaquig® (Octapharma) as a substrate.
Initially, the column was equilibrated with 3 mL of running buffer (50 mM TrisHCl, pH 7.6, 150 mM NaCl) using an FPLC system (AKTA Pure 25, Cytiva Life Science). The affinity matrix was then loaded with sample to achieve a 60% breakthrough. Unbound proteins and impurities were removed by washing the column with 7.5 mL of the same running buffer. Both, the sample application and washing steps were performed under red visible light illumination at 635 nm to ensure binding conditions. Following this, the elution of bound immunoglobulin G (IgG) was initiated by switching the illumination to blue visible light at 465 nm, which induces the release of the bound IgG. The resin was regenerated by again illuminating with red visible light at 635 nm, preparing it for subsequent use. […]

For `O=C(O)CNC(=O)c1cc(-c2cc(F)c(/N=N/c3c(F)cc(-c4ccc(NC(=O)CCl)c(C(=O)NCC(=O)O)c4)cc3F)c(F)c2)ccc1NC(=O)CCl` [PS4, 4′-(2-(4-(2-chloroacetamido)-3′,5′-difluorobiphenyl-3-ylcarboxyamido)acetic acid)-4′-(2-(4-(2-chloroacetamido)-3′,5′-difluorobiphenyl-3-ylcarboxyamido)acetic acid)diazene], the “t1/2 (cis→trans)” value in data set [1] is at least 24 h.
With `COc1cc(-c2ccc(NC(=O)CCl)c(C(=O)NCC(=O)O)c2)cc(OC)c1/N=N/c1c(OC)cc(-c2ccc(NC(=O)CCl)c(C(=O)NCC(=O)O)c2)cc1OC` [PS2, 4′-(2-(4-(2-chloroacetamido)-3′,5′-dimethoxybiphenyl-3-ylcarboxyamido)acetic acid)-4′-(2-(4-(2-chloroacetamido)-3′,5′-dimethoxybiphenyl-3-ylcarboxyamido)acetic acid)diazene], the “stability in the presence of TCEP” value in data set [2] was “stable”.

B1: Ps2-SpG #1: Protein G variant SpG #1 (SEQ ID NO. 18) modified with photoswitch PS2 (conjugate)
chain: MATKASKGGGGTTYRLILNGVTLSGETTTEACDAATAERVFRQYANDYGVDGEWTYDCATRTFTVTEGEDEDEDED
modifications: photoswitch PS2
For the molecule B1, in data set [3], the “binding and light-controlled elution of IgG (chromatogram)” value is “elution of specifically bound IgG molecules is initiated by blue light illumination”.

B2: Ps2-Ppl #1: Protein L variant PpL #1 (SEQ ID NO. 19) modified with photoswitch PS2 (conjugate)
chain: MATKASKGGGGASEEVTIRVNLIFADGSTQCAEFRGTFEEATAEAYAYADLLARENGEYTACLEDGGNTINIRFAGEDEDEDED
modifications: photoswitch PS2
As to B2, in data set [3], the “binding and light-controlled elution of IgG (chromatogram)” value was “elution of specifically bound IgG molecules is initiated by blue light illumination”.
